Laboratory results published in patent US8178688B2, “Benzamidine derivatives, process for the preparation thereof and pharmaceutical composition comprising the same” (Dong Wha Pharmaceutical Co., Ltd., priority 2004, dated 2012).
Marks after values point to notes of the source that are not given here.

Tests used:
[1] = system: rat models subjected to rib fracture; assay: Effect of promoting fracture healing in rib fracture-induced rat model (callus volume, callus osteoid volume); type: in vivo, SD rats; conditions: for Changes on callus volume (mm^3): 200 mg/kg oral once a day for 2 weeks from day 2 of surgery, 8th and 9th ribs, vehicle control 37.22 ± 8.23; for Changes on callus osteoid volume (OV/callus, %): 200 mg/kg oral once a day for 2 weeks, 8th rib, vehicle control 35.88 ± 5.06
Method: The benzamidine compounds were assayed for therapeutic effect on bone fracture in rat models subjected to rib fracture. Benzamidine derivates are dosed from 2 days after operation for 2 weeks, and the changes on the volume and histology of callus were observed.
A total of 54 SD rats (8 weeks old upon receipt, Jung Ang Lab. Animal Co., Korea) were used. While being housed at a density of three to a plastic cage, the experimental animals were kept in a breeding room under controlled temperature (20-25° C.) and humidity (30-35%). Under light-dark cycles of 12 hours, the rats were allowed to have free access to feedstuff and tap water.
200 mg of benzamidine compounds (Methansulfonic acid or Hydrochloride) were completely dissolved in 5 ml of sterilized distilled water. The benzamidine derivatives in the solutions was orally administered at doses of 200 mg per kg of body weight once a day for 2 weeks from day 2 of the surgery.
8th and 9th rib of each animal was exposed by general operation under ketamine HCl and xylazine HCl anesthesia, and the exposed ribs were crossly dissected using surgical scissors. After rib-fracture, surgical wounds were closed with general skin suture.
8th and 9th ribs of each animal were separated at sacrifice and then the long axis and short axis of callus were calculated as mm units. The volume of callus was calculated as following Equation 2. Callus volume(mm^3)=(a×b^2)/2 Equation 2 • a: long diameter of bony callus • b: short diameter of bony callus
The 8th rib including fracture sites of each rat was separated and fixed in 10% neutral buffered formalin, and then decalcified in decalcifying solution (24.4% formic acid, and 0.5N sodium hydroxide) for 5 days (mixed decalcifying solution was exchanges once a day for 5 days). After decalcification, the rib was embedded in paraffin, sectioned (3˜4 μm) and stained with hematoxylin-eosin or Masson's trichrome for composition of callus observation.
Osteloid volume (OV/callus) in callus regions of prepared histological specimens were detected as % levels using automated image analysis (analySIS Image Processing; SIS, Germany) under microscopy.

ovariectomized ddY mouse = assay: Therapeutic effect in the ovariectomized osteoporetic mouse model (trabecular bone volume of the femur); type: in vivo, ddY mice; conditions: 50 mg/kg/day oral gavage for 4 weeks from 4 weeks after ovariectomy, salts (methansulfonic acid or HCl); for change in vivo at 50 mg/kg: Mus musculus, 672 h, read-out: Changes on TBV (% changes vs vehicle control)
Method: The therapeutic effects of each benzamidine derivates were evaluated on the ovariectomized ddY mouse. Benzamidine derivates were dosed from 4 weeks after operation for 4 weeks and the changes on the trabecular bone volume (TBV) of the femur were observed via histomorphometry.
Female ddY mice (6-wk old upon receipt, SLC, Japan) were used after acclimatization for 7 days. Animals were allocated 5 per polycarbonate cage in a temperature (20-25° C.) and humidity (30-35%) controlled room. Light:dark cycle was 12 hr:12 hr and feed (Samyang, Korea) and water were supplied free to access.
Salts of benzamidine derivates (Methansulfonic acid or HCl) were used for the test substances of this invention. Test substances are dissolved and/or suspended in injectable distilled water and administered at a dosage volume of 10 ml/kg by oral gavage. All test substances are dosed from 4 weeks after operation for 4 weeks at 50 mg/kg/day.
To induce estrogen-deficient osteoporosis, bilateral ovaries are removed and then closed by routine methods. Operation was conduct under Ketamine hydrochloride and xylazine hydrochloride anesthesia.
The left femur of each mouse were separated at sacrifice, and fixed in 10% neutral buffered formalin (NBF), then decalcified in decalcifying solution (24.4% formic acid, and 0.5N sodium hydroxide) for 5 days (mixed decalcifying solution was exchanges once a day for 5 days). After the dexalcification, the femur was embedded in paraffin, sectioned (3˜4 μm) and stained with hematoxylin-eosin stain.
TBV was calculated using automated image analysis (analySIS Image Processing; SIS, Germany) under magnification of ×200 in the uniform area of trochlea epiphyseal regions (growth plate regions were excluded) of prepared histological specimens. TBV was calculated as percentage (%) levels.
The changes of TBV compared to that of vehicle control are calculated as following Equation 1 to help the understanding of the efficacy of test substances. Percentage changes=[((TBV of a−TBV of b)/TBV of b)×100] Equation 1

| SMILES | Changes on callus volume (mm^3) [1] | Changes on callus osteoid volume (OV/callus, %) [1] [%] | change in vivo at 50 mg/kg (ovariectomized ddY mouse) [%] | Changes on TBV (% changes vs vehicle control) (ovariectomized ddY mouse) [%] |
| --- | --- | --- | --- | --- |
| Cc1sc(-c2cccnc2)nc1-c1ccc(OCCCCCOc2ccc(C(=N)NO)cc2)cc1 [Example 13, N-hydroxy-4-(5-[4-(5-methyl-2-pyridin-3-yl-1,3-thiazol-4-yl)phenoxy]pentoxy)-benzamidine] | 23.15 ± 7.85* mm^3 | 43.19 ± 4.47 | 82 | – |
| CC(C)c1nc(-c2ccc(OCCCCCOc3ccc(C(=N)NO)cc3)cc2)c(CC2CCCC2)s1 [Example 47, N-hydroxy-4-(5-[4-(5-cyclopentylnnethyl-2-isopropyl-1,3-thiazol-4-yl)phenoxy]pentoxy)-benzamidine] | 27.56 ± 6.94** mm^3 | 45.69 ± 7.07 | – | 139.8 |
| CCCN(CCC)c1nc(-c2ccc(OCCCCCOc3ccc(C(=N)NO)cc3)cc2)c(CC)s1 [Example 138, N-hydroxy-4-(5-[4-(2-dipropylamino-5-ethyl-1,3-thiazol-4-yl)phenoxy]pentoxy)-benzamidine] | 27.34 ± 5.46* mm^3 | 53.83 ± 7.84 | 164 | – |
